{"source": "patent US20170312260A1", "about": "(LAUNX BIOMEDICAL CO., LTD., priority 2014, published 2017)", "format_in_all_cases": "cell-based", "key": {"[1]": {"tested_on": "SAS (Tongue squamous cell carcinoma)", "assay": "WST-1 cell viability analysis, SAS", "experimental": "(§1) The cell numbers were counted and reseed as 2×10^6 in cell culture plate/flask. Then, the culture medium were added to a volume of 10 ml, and the cells were cultured for 2-3 days. Then, the cells were suspended for loading into 96-well plates. The number of cells was 3000 and the volume of the culture medium was 100 μl each well.\n(§2) Removing the original culture medium from 96-well plate. Then add 100 μl of commercially drug at a concentration of 10 μM per well. After 72 hours, add the diluted WST-1 reagent to the well with 100 μl/well, and the diluted WST-1 reagent was acquired from the dilution of 9:1 medium and WST-1 stock reagent. Finally, the total volume of each well was 200 μl/well. Culture the 96-well plate at 37° C. for 30 to 90 minutes. Detecting and calculate the survival rate of each cancer cells with an ELISA reader at OD450 nm."}, "[2]": {"tested_on": "LoVo(Colorectal Adenocarcinoma)", "assay": "WST-1 cell viability analysis, LoVo", "conditions": "Homo sapiens", "experimental": "as §1, §2"}, "[3]": {"assay": "WST-1 cell viability analysis, HEK293", "conditions": "human", "experimental": "as §1, §2"}, "[4]": {"tested_on": "breast cancer cell line MDA-MB-231", "assay": "WST-1 cell viability analysis, MDA-MB-231", "conditions": "Homo sapiens"}, "[5]": {"tested_on": "MKN-45 (Gastric Adenocarcinoma)", "assay": "WST-1 cell viability analysis, MKN-45", "conditions": "Homo sapiens, MKN-45, 10 μM, 72 hours, read-out: viability (survival rate) of MKN-45 cells", "experimental": "as §1, §2"}, "[6]": {"tested_on": "colorectal cancer cell line HCT116-wt", "assay": "WST-1 cell viability analysis, HCT116-wt", "conditions": "72 hours, read-out: viability (survival rate) of HCT116-wt cells", "experimental": "as §1, §2"}, "[7]": {"tested_on": "breast cancer cell line MCF7", "assay": "WST-1 cell viability analysis, MCF7", "conditions": "Homo sapiens, MCF7, 10 μM, 72 hours, read-out: viability (survival rate) of MCF7 cells", "experimental": "as §1, §2"}, "[8]": {"tested_on": "Hep3B (hepatocellular carcinoma)", "assay": "WST-1 cell viability analysis, Hep3B", "conditions": "Homo sapiens", "experimental": "as §1, §2"}, "[9]": {"tested_on": "786-O (Renal adenocarcinoma)", "assay": "WST-1 cell viability analysis, 786-O", "conditions": "Homo sapiens", "experimental": "as §1, §2"}, "bladder cancer cells": {"tested_on": "bladder cancer cells", "assay": "Summary of cell viability, bladder cancer", "conditions": "72 hours, summary over the bladder cancer cell lines, read-out: Inhibitory effect, bladder cancer", "experimental": "as §1, §2\n(§3) As a result in the experiments of the present invention."}, "gastric cancer cells": {"tested_on": "gastric cancer cells", "assay": "Summary of cell viability, gastric cancer", "conditions": "72 hours, summary over the gastric cancer cell lines, read-out: Inhibitory effect, gastric cancer", "experimental": "as §1, §2, §3"}, "normal cells": {"tested_on": "normal cells", "assay": "Toxicity to normal cells (overall statement)", "text": "Subculture the different types of cancer cell lines. The cancer cells includes lung cancer, gastric cancer, hepatic cancer, colon cancer, skin cancer, cervical cancer, prostate cancer, bladder cancer, breast cancer, leukemia, pancreatic cancer, ovarian cancer, tongue cancer, osteosarcoma, and renal cancer. The normal cells used in the control group included kidney cell (HEK293) and human bronchial epithelial cell line BEAS-2B (as shown in Table 1).\nas §2"}}, "note": "Where two headings read alike, the source gives them in different places.", "data": [{"compound": "CC1=C(C(=O)OC(C)C)C(c2cccc([N+](=O)[O-])c2)C(C(=O)OC2CN(C(c3ccccc3)c3ccccc3)C2)=C(N)N1", "note": "(stereo not drawn) [Azelnidipine]", "values": [{"measurement": "viability at 10 µM", "setting": "[1]; 72 h, average of 4 tests, read-out: Average viability of SAS cells", "result": 76.8, "unit": "%"}, {"measurement": "viability at 10 µM", "setting": "[1]; 72 h, summary (SAS), read-out: Inhibitory effect, tongue cancer", "result": 76.8, "unit": "%"}, {"measurement": "viability at 10 µM", "setting": "[1]; 72 hours, run 6-26-10 min, read-out: viability (survival rate) of SAS cells", "result": 69.9, "unit": "%"}, {"measurement": "viability at 10 µM", "setting": "[1]; 72 hours, run 6-28-10 min, read-out: viability (survival rate) of SAS cells", "result": 66, "unit": "%"}, {"measurement": "viability at 10 µM", "setting": "[1]; 72 hours, run 6-30-10 min, read-out: viability (survival rate) of SAS cells", "result": 66.7, "unit": "%"}, {"measurement": "viability at 10 µM", "setting": "[1]; 72 hours, run 7-3-10 min, read-out: viability (survival rate) of SAS cells", "result": 105, "unit": "%"}, {"measurement": "viability at 10 µM", "setting": "[2]; 72 h, average of 4 tests, read-out: Average viability of LoVo cells", "result": 59.9, "unit": "%"}, {"measurement": "viability at 10 µM", "setting": "[2]; 72 hours, run 0616-10 min, read-out: viability (survival rate) of LoVo cells", "result": 49.6, "unit": "%"}, {"measurement": "viability at 10 µM", "setting": "[2]; 72 hours, run 0619-10 min, read-out: viability (survival rate) of LoVo cells", "result": 67.2, "unit": "%"}, {"measurement": "viability at 10 µM", "setting": "[2]; 72 hours, run 0621-10 min, read-out: viability (survival rate) of LoVo cells", "result": 62.3, "unit": "%"}, {"measurement": "viability at 10 µM", "setting": "[2]; 72 hours, run 0623-10 min, read-out: viability (survival rate) of LoVo cells", "result": 60.3, "unit": "%"}, {"measurement": "viability at 72 h, 10 µM", "setting": "[3]; HEK293 cells (normal kidney cell line), summary (HEK293), read-out: Inhibitory effect, Normal cell: Kidney cell", "result": 94.2, "unit": "%"}, {"measurement": "viability at 72 h, 10 µM", "setting": "[3]; HEK293 normal kidney cells, average of 4 tests, read-out: Average viability of HEK293 cells", "result": 94.2, "unit": "%"}, {"measurement": "viability at 10 µM", "setting": "[4]; MDA-MB-231, 10 μM, 72 hours, run 0612-10 min, read-out: viability (survival rate) of MDA-MB-231 cells", "result": 70.3, "unit": "%"}, {"measurement": "viability at 10 µM", "setting": "[4]; MDA-MB-231, 10 μM, 72 hours, run 0614-10 min, read-out: viability (survival rate) of MDA-MB-231 cells", "result": 89.7, "unit": "%"}, {"measurement": "viability at 10 µM", "setting": "[4]; MDA-MB-231, 72 h, 10 μM, average of the 3 printed tests, read-out: average viability of MDA-MB-231 cells", "result": 86.9, "unit": "%"}, {"measurement": "viability at 10 µM", "setting": "[5]; run 0510-10 min", "result": 174, "unit": "%"}, {"measurement": "viability at 10 µM", "setting": "[5]; run 0512-10 min", "result": 184, "unit": "%"}, {"measurement": "viability at 10 µM", "setting": "[5]; run 0515-10 min", "result": 68.5, "unit": "%"}, {"measurement": "viability at 10 µM", "setting": "[5]; run 0517-10 min", "result": 130, "unit": "%"}, {"measurement": "viability at 10 µM", "setting": "[6]; run 0602-30 min", "result": 70.7, "unit": "%"}, {"measurement": "viability at 10 µM", "setting": "[6]; run 0605-10 min", "result": 146, "unit": "%"}, {"measurement": "viability at 10 µM", "setting": "[6]; run 0607-10 min", "result": 159, "unit": "%"}, {"measurement": "viability at 10 µM", "setting": "[6]; run 0609-10 min", "result": 69.3, "unit": "%"}, {"measurement": "viability at 10 µM", "setting": "[7]; run 0612-10 min", "result": 48.6, "unit": "%"}, {"measurement": "viability at 10 µM", "setting": "[7]; run 0614-10 min", "result": 46.6, "unit": "%"}, {"measurement": "viability at 10 µM", "setting": "[7]; run 0616-10 min", "result": 68.2, "unit": "%"}, {"measurement": "viability at 10 µM", "setting": "[7]; run 0619-10 min", "result": 79.9, "unit": "%"}, {"measurement": "viability at 10 µM", "setting": "[8]; 72 h, average of 4 tests, read-out: Average viability of Hep3B cells", "result": 98.6, "unit": "%"}, {"measurement": "viability at 10 µM", "setting": "[8]; 72 hours, run 0612-20 min, read-out: viability (survival rate) of Hep3B cells", "result": 114, "unit": "%"}, {"measurement": "viability at 10 µM", "setting": "[8]; 72 hours, run 0614-20 min, read-out: viability (survival rate) of Hep3B cells", "result": 91.5, "unit": "%"}, {"measurement": "viability at 10 µM", "setting": "[8]; 72 hours, run 0616-20 min, read-out: viability (survival rate) of Hep3B cells", "result": 97.9, "unit": "%"}, {"measurement": "viability at 10 µM", "setting": "[8]; 72 hours, run 0619-20 min, read-out: viability (survival rate) of Hep3B cells", "result": 90.7, "unit": "%"}, {"measurement": "viability at 10 µM", "setting": "[9]; 786-0, 10 μM, 72 hours, run 0524-10 min, read-out: viability (survival rate) of 786-O cells", "result": 88.6, "unit": "%"}, {"measurement": "viability at 10 µM", "setting": "[9]; 786-0, 10 μM, 72 hours, run 0526-10 min, read-out: viability (survival rate) of 786-O cells", "result": 79.7, "unit": "%"}, {"measurement": "viability at 10 µM", "setting": "[9]; 786-0, 10 μM, 72 hours, run 0529-10 min, read-out: viability (survival rate) of 786-O cells", "result": 66.5, "unit": "%"}, {"measurement": "viability at 10 µM", "setting": "[9]; 786-0, 10 μM, 72 hours, run 0531-10 min, read-out: viability (survival rate) of 786-O cells", "result": 112, "unit": "%"}, {"measurement": "viability at 10 µM", "setting": "[9]; 786-0, 72 h, 10 μM, average of 4 tests, read-out: average viability of 786-O cells", "result": 86.8, "unit": "%"}, {"measurement": "viability at 10 µM", "setting": "[9]; 786-0, 72 h, 10 μM, summary (786-O), read-out: Inhibitory effect, Kidney cancer", "result": 86.8, "unit": "%"}, {"measurement": "viability at 10 µM", "setting": "bladder cancer cells", "result": 97.3, "unit": "%"}, {"measurement": "viability at 10 µM", "setting": "gastric cancer cells", "result": 115, "unit": "%"}, {"measurement": "toxicity to normal cells (in words)", "setting": "normal cells", "result": "no toxicity or had little toxicity"}]}]}
